IC50 data for two compounds are collected here from US20080146555A1, “Uses of Kinase Inhibitors and Compositions Thereof” (GPC Biotech, Inc, priority 2004, published 2008).

Common to all, as to format: biochemical
One test has as its target T1, Abl (c-Abl) (Homo sapiens, UniProt P00519).
T1 construct: purchased Upstate 14-529
In words: Abl kinase assay. Here is the method:
• 1. 5× Reaction Buffer: 40 mM MOPS, pH 7.0, 1 mM EDTA. • 2. Enzyme Dilution Buffer (EDB): 20 mM MOPS, pH 7.0, 1 mM EDTA, 0.01% Brij-35, 5% glycerol, 0.1% β-mercaptoethanol, 1 mg/ml BSA. • 3. Abl, active: Dilute to 0.2-8 ng/μl with EDB. Use 2.5-μl per assay point. • 4. […] Use 2.5 μl per assay point for a final assay concentration of 50 μM per assay point. • 5. [γ-^32P]ATP: Stock 1 mCi/100 μl (3000 Ci/mmol, obtained from PerkinElmer, Cat. # BLU002A). Make 10 μl aliquots (100 μCi/vial).
• 1. Add 5 μl of 5× Reaction Buffer per assay. • 2. Add 2.5 μl of Abltide (50 μM). • 3. Add 2.5 μl of Abl (human), active (0.5-20 ng). • 4. Add 5 μl sterile, distilled water. • 5. Add 10 μl of the diluted [γ-^32P]ATP solution. • 6. Incubate for 10 minutes at 30° C. • 7. Transfer a 20 μl aliquot onto the center of a 2 cm×2 cm P81 paper. • 8. […] Wash the assay squares once for 5 minutes with acetone. • 10. Transfer the assay squares to vial and add 5 ml scintillation cocktail. • 11. Read in scintillation counter. Compare cpm of enzyme samples to cpm of control samples that contain background control.

For the next test, the target named is T2, Fes (Homo sapiens, UniProt P07332).
T2 construct: purchased Upstate 14-473
T2 sequence (P07332 whole entry): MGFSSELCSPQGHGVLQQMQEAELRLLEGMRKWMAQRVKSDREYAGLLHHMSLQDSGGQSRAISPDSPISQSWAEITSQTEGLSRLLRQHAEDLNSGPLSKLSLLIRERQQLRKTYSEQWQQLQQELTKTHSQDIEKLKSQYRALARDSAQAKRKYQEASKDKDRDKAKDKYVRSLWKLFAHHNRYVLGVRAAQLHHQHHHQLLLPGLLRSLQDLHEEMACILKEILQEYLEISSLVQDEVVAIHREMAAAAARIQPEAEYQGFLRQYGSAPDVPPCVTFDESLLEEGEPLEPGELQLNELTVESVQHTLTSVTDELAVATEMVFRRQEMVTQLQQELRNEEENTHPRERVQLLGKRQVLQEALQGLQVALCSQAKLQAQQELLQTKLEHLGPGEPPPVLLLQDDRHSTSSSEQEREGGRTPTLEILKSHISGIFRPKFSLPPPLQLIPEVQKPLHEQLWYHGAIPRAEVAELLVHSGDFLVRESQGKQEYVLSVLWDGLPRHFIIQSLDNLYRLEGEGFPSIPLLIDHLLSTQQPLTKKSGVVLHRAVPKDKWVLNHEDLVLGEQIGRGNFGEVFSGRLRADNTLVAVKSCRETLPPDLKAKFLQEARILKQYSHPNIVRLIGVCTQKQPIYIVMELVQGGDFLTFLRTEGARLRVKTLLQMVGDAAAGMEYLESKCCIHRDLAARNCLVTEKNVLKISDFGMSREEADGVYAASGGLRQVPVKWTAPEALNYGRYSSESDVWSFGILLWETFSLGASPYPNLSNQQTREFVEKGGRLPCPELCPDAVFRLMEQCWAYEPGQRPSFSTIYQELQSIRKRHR
In words: Fes kinase assay. Here is the method: • 1. 2.5× Reaction Buffer: 50 mM MOPS, pH 7.0, 2.5 mM EDTA. • 2. Poly(Glu4-Tyr) (4:1): Prepare a 1 mg/ml stock in sterile distilled water. Add 2.5 μl per assay point for a final concentration of 0.1 mg/ml. • 3. Enzyme Dilution Buffer (EDB): 20 mM MOPS, pH 7.0, 1 mM EDTA, 5% glycerol, 0.01% Brij-35, 0.1% β-mercaptoethanol, 1 mg/ml BSA. • 4. Fes/Fps, active: Dilute to 4-40 ng/μl with EDB. Use 2.5 μl per assay. • 5. Magnesium/ATP Cocktail (Catalog #20-113): 75 mM MgCl2 and 500 μM ATP in 20 mM MOPS, pH 7.2, 25 mM β-glycerol phosphate, 5 mM EGTA, 1 mM sodium orthovanadate, 1 mM dithiothreitol. • 6. [γ-^32P]ATP: Stock 1 mCi/100 μl (3000 Ci/mmol, obtained from PerkinElmer, Catalog #LU002A). Make 10 μl aliquots (100 μCi/vial). Before starting the assay, dilute the Magnesium/ATP Cocktail 1:1 with sterile, distilled water. Then dilute an aliquot of [γ-^32P]ATP to 1 μCi/μl with 90 μl of the diluted Magnesium/ATP Cocktail. Use 10 μl per assay point for a final ATP concentration of 100 μM per assay point.
• 1. Add 10 μl of 2.5× Reaction Buffer per assay. • 3. Add 2.5 μl of Fes/Fps, active (10-100 ng). • 4. Add 10 μl of the diluted [γ-^32P]ATP mixture. • 5. Incubate for 10 minutes at 30° C. • 6. Spot 20 μl onto the center of a 2 cm×2 cm […]. • 7. Wash the assay squares three times for 5 minutes with 0.75% phosphoric acid. • 8. Wash the assay squares once for 5 minutes with acetone. • 9. Transfer the assay squares to vials and add 5 ml scintillation cocktail. • 10. Read in scintillation counter. Compare cpm of enzyme samples to cpm of control samples.

Another test deals with panel of Tyr kinases. In words: Kinase panel, Tyr kinases (average). Conditions: average over panel; read-out: average IC50 among Tyr kinases.
For the next test, the target named is T3, Abl T315I (Homo sapiens, UniProt P00519, T315I).
T3 construct: purchased Upstate 14-522
In words: Abl T315I kinase assay. The procedure:
• 1. 5× Reaction Buffer: 40 mM MOPS, pH 7.0, 1 mM EDTA. • 2. Enzyme Dilution Buffer (EDB): 20 mM MOPS, pH 7.0, 1 mM EDTA, 0.01% Brij-35, 5% glycerol, 0.1% β-mercaptoethanol, 1 mg/ml BSA. • 3. […] Use 2.5 μl per assay point. • 4. […] Use 2.5 μl per assay point for a final assay concentration of 50 μM per assay point. • 5. [γ-^32P]ATP: Stock 1 mCi/100 μl (3000 Ci/mmol, obtained from PerkinElmer, Cat. # BLU002A). Make 10 μl aliquots (100 μCi/vial).
• 1. Add 5 μl of 5× Reaction Buffer per assay. • 2. Add 2.5 μl of Abltide (50 μM). • 3. […] Add 5 μl sterile, distilled water. • 5. Add 10 μl of the diluted [γ-^32P]ATP solution. • 6. Incubate for 10 minutes at 30° C. • 7. Transfer a 20 μl aliquot onto the center of a 2 cm×2 cm P81 paper. • 8. […] Wash the assay squares once for 5 minutes with acetone. • 10. Transfer the assay squares to vial and add 5 ml scintillation cocktail. • 11. Read in scintillation counter. Compare cpm of enzyme samples to cpm of control samples that contain background control.

Setting [1] is: Table II, read-out: ABL1 Inhibition (IC50).
The mark [2] stands for this setting: read-out: Abl (wild-type c-Abl) IC50.
Where [3] appears, read: read-out: FES Inhibition (IC50).
The mark [4] stands for this setting: read-out: Inhibition (IC50), Table II (accession U07563, no symbol).

“And” between values parts separate entries of the source, which are not always exact repeats. Identical values can stand only once. Counter-ions that a name gives are not always drawn. Like-named read-outs stand apart in the source and are kept apart here.

As for `CC(C)N1CCN(C(=O)COc2ccc(-c3n[nH]c4c3C(=O)c3c(NC(=O)NN5CCOCC5)cccc3-4)cc2)CC1` [Compound A37], the IC50 on Abl (c-Abl) (Table AA, read-out: Abl IC50) is 35 nM; at Abl (c-Abl) (setting [1]), less than 50 nM; on Abl (c-Abl) (setting [2]) it was less than 50 nM; on Fes (setting [3]), less than 100 nM; at panel of Tyr kinases, ~37 nM and 35.5 nM; at Abl T315I (read-out: Abl T315I IC50), 87 nM. Further, the IC50 at Abl T315I (setting [4]) was less than 100 nM.

For `COCCN1CCN(Cc2ccc(-c3n[nH]c4c3C(=O)c3c(NC(=O)NN5CCOCC5)cccc3-4)cc2)CC1` [Compound B16, N-[3-(4-{[4-(2-methoxyethyl)piperazinyl]methyl}phenyl)-4-oxoindeno[2,3-d]pyrazol-5-yl](morpholin-4-ylamino)carboxamide dihydrochloride], the IC50 is 52 nM at Abl (c-Abl) (Table AA, read-out: Abl IC50); less than 100 nM on Abl (c-Abl) (setting [1]); less than 100 nM at Abl (c-Abl) (setting [2]); less than 100 nM at Fes (kinase panel, read-out: Fes IC50); less than 100 nM at Fes (setting [3]); roughly 55 nM on panel of Tyr kinases. Besides, the IC50 on Abl T315I (read-out: Abl T315I IC50) is roughly 100 nM; on Abl T315I (setting [4]) it was less than 100 nM.

The term IC50 denotes the point on the concentration scale where inhibition reaches its midpoint.
